According to patent publication US20160089343A1 (LSU Health Sciences Center Shreveport, priority 2014, published 2016):
Entries after “also recorded” stand apart in the source; their conditions may differ.

Legend:
tumor formation = test: Model of minimal residual disease; assay type: in vivo
mTOR pathway markers = test: Phase 2 biomarker exploratory trial in HNSCC patients; assay type: in vivo, human
Excerpt: Criteria #1) Biomarker expression in normal tissue should be different from that in high risk tissue. In FIG. 2 we present an analysis of cancer (lanes 5, 6, 11, and 12) and non-cancer (patients with sleep apnea) (lanes 1-4 and 7-10) patient samples. The cancer samples include tumors (T) and histologically tumor-free margins (M). […] Criteria #2) Biomarkers can be detected in small tissue specimens. In our studies we have successfully detected by western blots and even by IHC the various Akt/mTOR markers on samples often as small as 5 mm. Criteria #3) Biomarkers can be expressed in a quantity or pattern that can be correlated with the stage of carcinogenesis.

HNSCC cell lines = HNSCC cell lines screened for sensitivity to curcumin (cell proliferation); assay type: cell-based; conditions: for sensitivity of a variety of cell lines: spread of sensitivity across cell lines
[1] = system: normal fibroblast cell line CCL110; test: Cell proliferation in the normal fibroblast cell line; assay type: cell-based; conditions: CCL110, in vitro
[2] = system: NFκB and Akt/mTOR pathways in SCC40 cells; test: Modulation of NFκB and Akt/mTOR pathways, SCC40 cells; assay type: cell-based; conditions: SCC40, 10 μM curcumin
[3] = system: pNFκB or Akt/mTOR in CCL110 cells; test: Modulation of NFκB and Akt/mTOR pathways, CCL110 normal fibroblasts; assay type: cell-based; conditions: CCL110, 10 μM curcumin, 24 and 48 hours
[4] = system: NFκB and Akt/mTOR pathways in PCI15a cells; test: Modulation of NFκB and Akt/mTOR pathways, PCI15a cells; assay type: cell-based; conditions: 10 μM curcumin
[5] = system: TPA-induced tumors on mouse skin; conditions: topical 10 μmol curcumin twice weekly; cited from earlier work
tumor cells = test: Chemoprevention model: pre-treatment before injecting tumor cells, tumor volume; assay type: in vivo, Balb/c nu/nu mice; conditions: from 4 days before tumor cells, about three weeks
Procedure: Balb/c nu/nu mice were randomized into treatment groups. […] Tumors were measured over approximately three weeks. […] ANOVA analysis. […] This also points to its role as a chemopreventive agent rather than a therapeutic agent.

[6] = system: Akt/mTOR pathway in SCC066 cells; test: Modulation of NFκB and Akt/mTOR pathways, SCC066 cells; assay type: cell-based; conditions: SCC066, 10 μM curcumin, 24 and 48 hours
[7] = system: pAkt and pS6 in SCC40 xenografts; test: pAkt and pS6 in SCC40 xenografts of curcumin-treated mice; assay type: in vivo; conditions: mice with SCC40 xenografts treated with curcumin
DMBA-induced oral tumors = conditions: topical 10 μmol curcumin to cheek pouch 3 times/week for 24 weeks; cited from earlier work
[8] = system: prostate cancer xenograft; conditions: p.o. gavage 5 mg/day, 5 days/week for 4 weeks; cited from earlier work
[9] = system: AKT/mTOR pathway, FGF-2 and MMP-9 in HNSCC cell lines; test: Biomarkers in HNSCC cell lines (earlier work); assay type: cell-based
Excerpt: Also, identifying a consistent biomarker that can be validated in chemoprevention trials is critical, as the occurrence of cancer as an end point could take years. […] Acquiring the angiogenic phenotype by premalignant cells is the a critical step in carcinogenesis and FGF-2 is one of the most important angiogenic markers. Oral dysplasias are characterized by deregulations (DNA amplification and homozygous deletion) of multiple components of the FGF signaling network. […] GM-CSF promotes proliferation of endothelial progenitor cells, induces endothelial capillary formation via stimulation of MMP expression and activates JAK2/STAT-3 pathway. IL-17, besides its function as immune marker, is also implicated in stimulating angiogenesis.

Question: Which survival (tumor formation) does the source give for `CO[C@H]1C[C@@H]2CC[C@@H](C)[C@@](O)(O2)C(=O)C(=O)N2CCCC[C@H]2C(=O)O[C@H]([C@H](C)C[C@@H]2CC[C@@H](OC(=O)C(C)(CO)CO)[C@H](OC)C2)CC(=O)[C@H](C)/C=C(\C)[C@@H](O)[C@@H](OC)C(=O)[C@H](C)C[C@H](C)/C=C/C=C/C=C/1C` [CCI-779, temsirolimus] here?
Answer: improve survival

Question: And the tumor formation (tumor formation)?
Answer: inhibit tumor formation

Question: And the “mTOR pathway markers in tumors and PBMCs” value (mTOR pathway markers)?
Answer: modulation of these markers

Question: Which “sensitivity of a variety of cell lines” value (HNSCC cell lines) does the source give for `CO[C@H]1C[C@@H]2CC[C@@H](C)[C@@](O)(O2)C(=O)C(=O)N2CCCC[C@H]2C(=O)O[C@H]([C@H](C)C[C@@H]2CC[C@@H](OCCO)[C@H](OC)C2)CC(=O)[C@H](C)/C=C(\C)[C@@H](O)[C@@H](OC)C(=O)[C@H](C)C[C@H](C)/C=C/C=C/C=C/1C` [RAD001, everolimus] here?
Answer: wide range of sensitivity

Question: For `COc1cc(/C=C/C(=O)CC(=O)/C=C/c2ccc(O)c(OC)c2)ccc1O` [curcumin], which “dose required to see effects in normal fibroblasts” value [1] is on record?
Answer: 20 to 40 µM

Question: What about the Akt/mTOR pathway ([2]; 24 and 48 hours) of the same compound?
Answer: no change

Question: And the pNFκB ([2]; 48 hours)?
Answer: down-regulation

Question: What about the “pNFκB or Akt/mTOR” value [3] of the same compound?
Answer: no decrease

Question: And the pNFκB ([4]; 24 and 48 hours)?
Answer: no change

Question: What about the pAkt ([4]; 48 hours) of the same compound?
Answer: down-regulated

Question: What about the “pS6 downstream of mTOR” value ([4]; 48 hours) of the same compound?
Answer: down-regulated

Question: And the “inhibition of the number of tumors per mouse” value [5]?
Answer: 98%

Question: And the “tumor volume versus control (vehicle treated)” value (tumor cells; 10 mg curcumin)?
Answer: no significant difference

Question: And the “tumor volume versus control (vehicle treated)” value (tumor cells; 15 mg curcumin, p=0.007, mixed ANOVA)?
Answer: statistically significant difference

Question: And the growth inhibitory effect (HNSCC cell lines; all 10 HNSCC cell lines tested to date)?
Answer: growth inhibitory effects

Question: What about the “effect on cell proliferation” value (HNSCC cell lines; all HNSCC cell lines, 10 μM curcumin) of the same compound?
Answer: inhibition of cell proliferation

Question: What about the anti-proliferative effect (HNSCC cell lines; panel of nine HNSCC cell lines, earlier work) of the same compound?
Answer: robust anti-proliferative effects

Question: And the “sensitivity of a variety of cell lines” value (HNSCC cell lines)?
Answer: consistently sensitive

Question: And the growth inhibitory effect (HNSCC cell lines; three HNSCC cell lines (PCI15a, SCC40, SCC066), 10 μM, 48 hours)?
Answer: significant growth inhibitory effects

Question: And the “curcumin concentration giving consistent inhibition of cell proliferation” value (HNSCC cell lines; variety of HNSCC cell lines, in vitro)?
Answer: less than 10 μM

Question: And the Akt/mTOR pathway [6]?
Answer: did not show any modulation

Question: And the pAkt in xenografts [7]?
Answer: significant decrease

Question: And the pS6 in xenografts [7]?
Answer: significant decrease

Question: What about the “reduction of the number of DMBA-induced oral tumors” value (DMBA-induced oral tumors) of the same compound?
Answer: ~40%

Question: What about the “inhibition of growth of prostate cancer xenograft” value [8] of the same compound?
Answer: ~50%

Question: What about the “FGF-2 expression in HNSCC cells” value ([9]; p<0.001) of the same compound?
Answer: downregulation; also recorded: significant inhibition

Question: And the “AKT/mTOR pathway in HNSCC cell lines” value ([9]; panel of nine HNSCC cell lines)?
Answer: inhibition

Question: And the “MMP-9 in HNSCC cell lines” value ([9]; panel of nine HNSCC cell lines)?
Answer: downregulation
